pKi: −log10 of the molar value. Entries after “also recorded” stand apart in the source; their conditions may differ.
Columns and labels:
Type in all cases: cell-based
SfMCT [1] = target: T1, SfMCT (Syntrophobacter fumaroxidans, UniProt A0LNN5); conditions: wild-type (WT) SfMCT; competition of [14C]L-lactate uptake
T1 construct: expressed in transfected cells; host or cells: E. coli JA202 (MC4100 glcA::cat lldP::kan), plasmid pEXT20-SfMCT-3C-10His
T1 sequence (A0LNN5 1-412): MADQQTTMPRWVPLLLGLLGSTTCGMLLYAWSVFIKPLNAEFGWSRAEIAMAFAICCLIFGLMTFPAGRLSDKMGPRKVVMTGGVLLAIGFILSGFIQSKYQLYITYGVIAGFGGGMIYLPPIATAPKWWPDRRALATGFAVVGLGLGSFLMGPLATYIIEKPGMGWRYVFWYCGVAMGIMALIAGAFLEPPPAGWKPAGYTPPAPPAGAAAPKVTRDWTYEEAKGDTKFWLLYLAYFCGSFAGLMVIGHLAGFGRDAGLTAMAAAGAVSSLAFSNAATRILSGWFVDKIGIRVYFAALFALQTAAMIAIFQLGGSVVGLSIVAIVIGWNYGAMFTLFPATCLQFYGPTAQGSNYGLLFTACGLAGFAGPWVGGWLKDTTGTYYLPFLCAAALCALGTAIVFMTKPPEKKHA
Method: The cultures were grown at 37 °C and 180 r.p.m. in an incubator shaker (Multitron, Infors HT). Protein expression was induced at OD600 ~0.5 by addition of IPTG to a final concentration of 0.25 mM. After 4 h, bacteria were pelleted (5,200 × g, 10 min, room temperature) and resuspended in uptake buffer (20 mM Bis-Tris propane-HCl (pH 6.7), 250 mM KCl) to a bacteria density of OD600 12. […] Furthermore, [3-3 H] propionic acid sodium salt ([^3H]propionate, American Radiolabeled Chemicals, specific activity 30 Ci/mmol), n-[2,3-3 H] butyric acid sodium salt ([^3H]butyrate, American Radiolabeled Chemicals, specific activity 120 Ci/mmol), and [1–14 C] pyruvic acid sodium salt ([^14C]pyruvate, specific activity 0.055 Ci/mmol American Radiolabeled Chemicals) were also used for transport experiments. […] Uptake experiments were performed in 2 ml reaction tubes (Eppendorf) at 30 °C under agitation (1,000 r.p.m., Thermomixer compact, Eppendorf). […] Bacteria were immediately pelleted by centrifugation (21,000 × g, 4 min, room temperature) and washed two times with 900 μl stop buffer. Finally, bacteria were lyzed in 50 μl 5% (w/v) sodium dodecylsulfate and transferred into a white 96-well plate (Optiplate, PerkinElmer). 150 µl of scintillation cocktail (MicroScint 40, PerkinElmer) were added before measuring each reaction for 2 min with a scintillation counter (TopCount NXT, PerkinElmer). For data analysis, the signal of the empty vector was subtracted from the transporter signal. […] Cpm values of each experiment were normalized with respect to the determined upper plateau value, i.e., the fitted upper plateau value corresponds to 100%. The arithmetic average of three independent experiments was calculated. Three independent and normalized pH-dependence curves were then averaged. For data analysis Prism6 (GraphPad Software) was used. […] Equal amounts of bacteria expressing SfMCT variants were loaded on 14% SDS/polyacrylamide gels. His-tagged transporters were detected using an anti-His5 (Qiagen, catalogue number 34660, primary antibody) at a dilution of 1:3,000 and a goat anti-mouse IgG (H + L) HRP conjugate antibody (Biorad, catalogue number 172-1011, secondary antibody) at a dilution of 1:2,500.

Y331F SfMCT = target: T2, Y331F SfMCT (Syntrophobacter fumaroxidans, UniProt A0LNN5, Y331F); test: [14C]L-lactate transport competition assay, Y331F SfMCT; conditions: competition of [14C]L-lactate uptake
T2 construct: expressed in transfected cells; host or cells: E. coli JA202, pEXT20-SfMCT-3C-10His mutant plasmid
Method: The cultures were grown at 37 °C and 180 r.p.m. in an incubator shaker (Multitron, Infors HT). Protein expression was induced at OD600 ~0.5 by addition of IPTG to a final concentration of 0.25 mM. After 4 h, bacteria were pelleted (5,200 × g, 10 min, room temperature) and resuspended in uptake buffer (20 mM Bis-Tris propane-HCl (pH 6.7), 250 mM KCl) to a bacteria density of OD600 12. […] Furthermore, [3-3 H] propionic acid sodium salt ([^3H]propionate, American Radiolabeled Chemicals, specific activity 30 Ci/mmol), n-[2,3-3 H] butyric acid sodium salt ([^3H]butyrate, American Radiolabeled Chemicals, specific activity 120 Ci/mmol), and [1–14 C] pyruvic acid sodium salt ([^14C]pyruvate, specific activity 0.055 Ci/mmol American Radiolabeled Chemicals) were also used for transport experiments. […] Cpm values of each experiment were normalized with respect to the determined upper plateau value, i.e., the fitted upper plateau value corresponds to 100%. The arithmetic average of three independent experiments was calculated. […] His-tagged transporters were detected using an anti-His5 (Qiagen, catalogue number 34660, primary antibody) at a dilution of 1:3,000 and a goat anti-mouse IgG (H + L) HRP conjugate antibody (Biorad, catalogue number 172-1011, secondary antibody) at a dilution of 1:2,500.

SfMCT [2] = target: T1, SfMCT; test: Micro pH electrode-based transport assay, SfMCT-expressing E. coli JA202; conditions: 10 mM compound (pH 6.5) added to bacterial suspension pH 6.7
Method: A measuring set up as previously reported[18] was used for micro pH electrode-based transport measurements. SfMCT was expressed in E. coli JA202 (MC4100 glcA::cat lldP::kan)[15] as described for uptake experiments. After expression, bacteria were pelleted (5,200 × g, 10 min, room temperature), washed twice in assay solution (250 mM KCl, 1 mM MgSO4, 2 mM CaCl2; 5,200 × g, 10 min, room temperature) and finally resuspended in assay solution to a bacterial density of OD600 15. Compounds that were assayed for proton-coupled transport were dissolved in assay solution and the pH was adjusted to 6.5. 800 µl of bacteria suspension were transferred into a 2 ml reaction tube (Eppendorf) and the pH value of the bacterial suspension (extracellular medium) was measured using a micro pH electrode with integrated temperature sensor (InLab Micro Pro, Mettler Toledo) under constant stirring. The pH of the bacterial suspension was adjusted to pH 6.7 using potassium hydroxide and hydrochloric acid. The SevenCompact pH-meter (Mettler Toledo), together with LabX direct pH 2.3 software (Mettler Toledo), were used for automatic recording in 15 s intervals. Measurements were initiated by adding 10 mM of the corresponding compound to the bacterial suspension. All experiments were performed at 24 °C.

T2 sequence (A0LNN5 whole entry Y331F): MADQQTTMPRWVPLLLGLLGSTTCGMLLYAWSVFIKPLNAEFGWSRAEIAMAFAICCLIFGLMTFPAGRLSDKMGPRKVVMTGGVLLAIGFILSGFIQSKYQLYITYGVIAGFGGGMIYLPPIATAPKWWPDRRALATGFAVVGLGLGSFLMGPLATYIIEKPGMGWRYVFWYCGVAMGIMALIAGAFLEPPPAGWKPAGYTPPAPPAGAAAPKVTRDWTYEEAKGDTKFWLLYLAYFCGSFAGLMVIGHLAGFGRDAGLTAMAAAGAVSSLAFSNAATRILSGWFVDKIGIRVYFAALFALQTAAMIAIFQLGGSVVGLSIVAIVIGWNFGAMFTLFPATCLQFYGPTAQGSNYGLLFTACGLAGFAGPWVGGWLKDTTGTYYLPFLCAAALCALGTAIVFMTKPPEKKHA

With `O=C(O)c1ccccc1S` [TSA, thiosalicylate] the pKi (SfMCT [1]) was 3.92, the pKi (Y331F SfMCT) was 2.86 and the “proton-coupled transport, change of extracellular pH (in words)” value (SfMCT [2]) was “not a substrate; also recorded: not transported”.

From PMC6573034 (Nature Communications, 2019)
